{
  "source": "paper PMC7891582",
  "about": "(Journal of Clinical Pharmacology, 2020)",
  "key": {"[1]": {"system": "CYP3A", "test": "Midazolam", "format": "in vivo, human"}, "[2]": {"target": "CYP2C9 (Homo sapiens, UniProt P11712)", "sequence (P11712 whole entry)": "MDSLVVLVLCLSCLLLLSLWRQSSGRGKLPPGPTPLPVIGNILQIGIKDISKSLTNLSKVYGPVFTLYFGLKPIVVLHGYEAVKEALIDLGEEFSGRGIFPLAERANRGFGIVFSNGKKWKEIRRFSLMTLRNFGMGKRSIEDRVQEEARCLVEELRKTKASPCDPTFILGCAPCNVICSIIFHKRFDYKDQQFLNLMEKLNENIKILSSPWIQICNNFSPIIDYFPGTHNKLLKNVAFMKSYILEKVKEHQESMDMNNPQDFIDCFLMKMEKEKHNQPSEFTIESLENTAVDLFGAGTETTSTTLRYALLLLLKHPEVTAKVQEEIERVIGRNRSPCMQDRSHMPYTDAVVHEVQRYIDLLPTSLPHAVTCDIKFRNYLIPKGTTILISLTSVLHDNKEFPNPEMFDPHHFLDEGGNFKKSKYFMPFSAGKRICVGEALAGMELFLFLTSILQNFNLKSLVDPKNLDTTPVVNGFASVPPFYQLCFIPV", "test": "Tolbutamide", "format": "in vivo"}, "[3]": {"target": "P‐gp (Homo sapiens, UniProt P08183)", "sequence (P08183 whole entry)": "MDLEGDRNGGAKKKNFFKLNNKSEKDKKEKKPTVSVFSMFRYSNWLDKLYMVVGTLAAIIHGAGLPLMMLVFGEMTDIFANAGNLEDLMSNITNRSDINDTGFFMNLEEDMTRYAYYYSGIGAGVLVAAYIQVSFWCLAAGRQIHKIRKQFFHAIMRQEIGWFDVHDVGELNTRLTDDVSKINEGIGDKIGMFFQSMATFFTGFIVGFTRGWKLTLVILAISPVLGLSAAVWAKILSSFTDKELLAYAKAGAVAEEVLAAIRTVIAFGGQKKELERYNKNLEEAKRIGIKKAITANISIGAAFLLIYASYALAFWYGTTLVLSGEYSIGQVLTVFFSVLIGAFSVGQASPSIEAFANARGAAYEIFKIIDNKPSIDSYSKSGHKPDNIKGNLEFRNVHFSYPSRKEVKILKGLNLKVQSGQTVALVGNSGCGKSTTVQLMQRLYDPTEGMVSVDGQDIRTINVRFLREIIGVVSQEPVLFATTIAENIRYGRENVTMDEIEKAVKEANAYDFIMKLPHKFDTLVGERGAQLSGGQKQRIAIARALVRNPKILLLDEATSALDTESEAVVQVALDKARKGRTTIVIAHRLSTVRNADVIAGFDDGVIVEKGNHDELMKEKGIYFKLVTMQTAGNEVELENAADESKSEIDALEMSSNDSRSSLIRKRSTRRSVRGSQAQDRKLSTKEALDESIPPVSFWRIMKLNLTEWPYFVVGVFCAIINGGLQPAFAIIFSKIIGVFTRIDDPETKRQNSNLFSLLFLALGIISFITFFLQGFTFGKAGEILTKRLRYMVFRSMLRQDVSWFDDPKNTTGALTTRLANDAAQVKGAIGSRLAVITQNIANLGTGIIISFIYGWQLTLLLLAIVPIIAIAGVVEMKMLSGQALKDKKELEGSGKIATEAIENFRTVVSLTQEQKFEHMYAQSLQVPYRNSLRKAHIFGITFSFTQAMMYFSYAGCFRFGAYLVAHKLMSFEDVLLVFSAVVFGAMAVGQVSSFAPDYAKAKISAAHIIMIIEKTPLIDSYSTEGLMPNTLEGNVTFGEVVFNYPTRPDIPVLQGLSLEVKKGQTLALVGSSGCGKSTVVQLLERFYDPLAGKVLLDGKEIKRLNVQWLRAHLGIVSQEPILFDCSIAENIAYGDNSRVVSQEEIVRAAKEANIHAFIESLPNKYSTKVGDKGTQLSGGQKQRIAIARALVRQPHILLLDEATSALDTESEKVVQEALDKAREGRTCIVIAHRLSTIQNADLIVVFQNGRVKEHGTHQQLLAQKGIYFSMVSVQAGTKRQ", "test": "Digoxin", "format": "in vivo"}, "[4]": {"target": "CYP2C19 (Homo sapiens, UniProt P33261)", "sequence (P33261 whole entry)": "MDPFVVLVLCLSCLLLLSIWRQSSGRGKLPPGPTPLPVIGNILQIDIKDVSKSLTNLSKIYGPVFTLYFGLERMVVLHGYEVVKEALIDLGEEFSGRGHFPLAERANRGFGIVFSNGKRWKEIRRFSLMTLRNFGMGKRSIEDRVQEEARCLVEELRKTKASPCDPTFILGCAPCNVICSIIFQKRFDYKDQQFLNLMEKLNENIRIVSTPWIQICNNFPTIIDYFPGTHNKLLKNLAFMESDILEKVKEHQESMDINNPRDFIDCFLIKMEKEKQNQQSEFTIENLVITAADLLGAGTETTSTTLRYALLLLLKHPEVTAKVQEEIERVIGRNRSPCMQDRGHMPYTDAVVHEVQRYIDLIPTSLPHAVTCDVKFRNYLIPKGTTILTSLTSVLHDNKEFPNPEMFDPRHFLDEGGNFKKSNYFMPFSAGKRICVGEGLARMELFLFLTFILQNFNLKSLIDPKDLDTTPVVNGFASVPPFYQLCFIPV", "test": "Omeprazole"}, "[5]": {"system": "CYP3A", "settings": "human liver microsome, concentration-dependent; ref unpublished data; cited from earlier work"}, "[6]": {"test": "Safety in omeprazole/digoxin study", "format": "in vivo, human"}, "[7]": {"system": "CYP3A", "settings": "ref unpublished in vitro studies, cited from earlier work"}, "[8]": {"system": "CYP2C9", "settings": "read-out: IC50 for CYP2C9 inhibition; in vitro; ref unpublished in vitro studies; cited from earlier work"}, "[9]": {"system": "CYP2C19", "settings": "in vitro data; ref unpublished in vitro studies; cited from earlier work"}, "[10]": {"test": "Safety in midazolam/tolbutamide study", "format": "in vivo, human"}, "[11]": {"settings": "cited from earlier work"}, "[12]": {"system": "P‐gp", "settings": "cited from earlier work"}, "[13]": {"settings": "coadministered with pexidartinib"}, "[14]": {"settings": "coadministered with pexidartinib 1800 mg"}, "[15]": {"settings": "after multiple doses of pexidartinib"}, "[16]": {"settings": "coadministration with single dose of pexidartinib"}, "[17]": {"settings": "coadministered with single dose pexidartinib"}, "[18]": {"settings": "omeprazole plus pexidartinib vs omeprazole only"}},
  "note": "“Also recorded” adds a separate entry of the source.",
  "data": [
    {"compound": "OCc1ncc2n1-c1ccc(Cl)cc1C(c1ccccc1F)=NC2", "note": "[1‐hydroxy midazolam]", "values": [
      {"measurement": "exposure to 1-hydroxy midazolam", "setting": "[1]; with or without concomitant pexidartinib", "result": "similar"}
    ]},
    {"compound": "CCCCNC(=O)NS(=O)(=O)c1ccc(CO)cc1", "note": "[4‐hydroxy tolbutamide]", "values": [
      {"measurement": "exposure to 4-hydroxy tolbutamide", "setting": "[2]; during pexidartinib coadministration", "result": "decrease"}
    ]},
    {"compound": "C[C@H]1O[C@@H](O[C@H]2[C@@H](O)C[C@H](O[C@H]3[C@@H](O)C[C@H](O[C@H]4CC[C@@]5(C)[C@H](CC[C@@H]6[C@@H]5C[C@@H](O)[C@]5(C)[C@@H](C7=CC(=O)OC7)CC[C@]65O)C4)O[C@@H]3C)O[C@@H]2C)C[C@H](O)[C@@H]1O", "note": "[digoxin]", "values": [
      {"measurement": "effect on digoxin AUClast", "setting": "[3]; [13]", "result": "no significant effect; also recorded: nonsignificant effect"},
      {"measurement": "effect on digoxin time to reach Cmax or shape of plasma concentration-time curve", "setting": "[3]; [13]", "result": "no apparent effect"},
      {"measurement": "increase in digoxin AUClast", "setting": "[3]; [14]", "result": 8, "unit": "%"},
      {"measurement": "increase in digoxin Cmax", "setting": "[3]; [14]", "result": 32, "unit": "%"}
    ]},
    {"compound": "Cc1ncc2n1-c1ccc(Cl)cc1C(c1ccccc1F)=NC2", "note": "[midazolam]", "values": [
      {"measurement": "decrease in midazolam AUClast", "setting": "[1]; [15]", "result": 52, "unit": "%"},
      {"measurement": "decrease in midazolam Cmax", "setting": "[1]; [15]", "result": 28, "unit": "%"},
      {"measurement": "decrease in midazolam AUClast", "setting": "[1]; [16]", "result": 21, "unit": "%"},
      {"measurement": "decrease in midazolam Cmax", "setting": "[1]; [16]", "result": 9, "unit": "%"}
    ]},
    {"compound": "COc1ccc2[nH]c([S+]([O-])Cc3ncc(C)c(OC)c3C)nc2c1", "note": "(stereo not drawn) [omeprazole]", "values": [
      {"measurement": "decrease in Cmax for omeprazole", "setting": "[4]; [17]", "result": 37, "unit": "%"},
      {"measurement": "omeprazole tmax", "setting": "[4]; [17]", "result": 3, "unit": "h"},
      {"measurement": "AUC(0-inf)", "setting": "[4]; human, plasma, oral, 40 mg", "result": 1740, "unit": "ng·h/mL"},
      {"measurement": "AUC(0-t)", "setting": "[4]; human, plasma, oral, 40 mg", "result": 1730, "unit": "ng·h/mL"},
      {"measurement": "tmax", "setting": "[4]; human, plasma, oral, 40 mg", "result": 2.25, "unit": "h"},
      {"measurement": "Cmax", "setting": "[4]; human, plasma, po, 40 mg", "result": 908, "unit": "ng/mL"},
      {"measurement": "AUCinf geometric LS mean ratio", "setting": "[4]; [18]", "result": 83.2, "unit": "%"},
      {"measurement": "AUClast geometric LS mean ratio", "setting": "[4]; [18]", "result": 77.4, "unit": "%"},
      {"measurement": "Cmax geometric LS mean ratio", "setting": "[4]; [18]", "result": 62.8, "unit": "%"}
    ]},
    {"compound": "FC(F)(F)c1ccc(CNc2ccc(Cc3c[nH]c4ncc(Cl)cc34)cn2)cn1", "note": "[pexidartinib]", "values": [
      {"measurement": "in vivo effect on CYP2C19-mediated metabolism", "setting": "[4]; omeprazole probe", "result": "does not significantly affect"},
      {"measurement": "effect on midazolam hydroxylation", "setting": "[5]", "result": "activated midazolam hydroxylation"},
      {"measurement": "in vivo effect on CYP3A (FDA criteria)", "setting": "[1]; midazolam probe", "result": "moderate inducer"},
      {"measurement": "TEAEs considered related to pexidartinib (all pruritus)", "setting": "[6]; 20 healthy subjects", "result": "Three"},
      {"measurement": "intensity of TEAEs", "setting": "[6]; 20 healthy subjects", "result": "mild (grade 1)"},
      {"measurement": "subjects who experienced a TEAE", "setting": "[6]; 20 healthy subjects, single dose 1800 mg", "result": 40, "unit": "%"},
      {"measurement": "tolerability", "setting": "[6]; omeprazole/digoxin study", "result": "generally well tolerated"},
      {"measurement": "type of in vitro effect on CYP3A", "setting": "[7]; in vitro data", "result": "direct and time‐dependent inhibitor and an inducer"},
      {"measurement": "IC50", "setting": "[7]; read-out: IC50 for CYP3A inhibition, in vitro", "result": 16.7, "unit": "µM"},
      {"measurement": "IC50", "setting": "[8]", "result": 3.7, "unit": "µM"},
      {"measurement": "time dependence of inhibitory effect on CYP2C19", "setting": "[9]", "result": "not time dependent"},
      {"measurement": "in vivo effect on CYP2C9 (FDA criteria)", "setting": "[2]; tolbutamide probe", "result": "weak inhibitor"},
      {"measurement": "subjects with a grade 4 TEAE", "setting": "[10]; 30 subjects with tumors", "result": 4, "unit": "subjects"},
      {"measurement": "subjects with grade 3 TEAEs", "setting": "[10]; 30 subjects with tumors", "result": 40, "unit": "%"},
      {"measurement": "subjects who discontinued treatment due to pexidartinib-related TEAEs", "setting": "[10]; drug hypersensitivity, increased blood bilirubin", "result": 7, "unit": "%"},
      {"measurement": "grade 4 TEAEs considered related to pexidartinib", "setting": "[10]; increased bilirubin", "result": 1},
      {"measurement": "tolerability", "setting": "[10]; midazolam/tolbutamide study", "result": "generally well tolerated"},
      {"measurement": "grade 3 TEAEs considered related to pexidartinib", "setting": "[10]; of 22 grade 3 TEAEs", "result": 9},
      {"measurement": "in vivo effect on P-gp transport", "setting": "[3]; digoxin probe", "result": "does not significantly affect"},
      {"measurement": "delay of tmax with high-fat meal", "setting": "[11]", "result": 1.5, "unit": "h"},
      {"measurement": "effect of high-fat meal on exposure", "setting": "[11]", "result": "doubles"},
      {"measurement": "elimination half-life", "setting": "[11]", "result": 26.6, "unit": "h"},
      {"measurement": "accumulation ratio (exposure vs first dose)", "setting": "[11]; multiple dosing, twice-daily regimen", "result": "≈ 3.6 times"},
      {"measurement": "tmax", "setting": "[11]; oral administration", "result": "≈ 2.5 hours"},
      {"measurement": "time dependence of inhibitory effect on P-gp", "setting": "[12]; in vitro data, ref unpublished in vitro studies", "result": "not time dependent"},
      {"measurement": "IC50", "setting": "[12]; read-out: in vitro IC50 for P-gp, preclinical data, ref data on file", "result": 43.4, "unit": "µM"}
    ]}
  ]
}
